Measured values taken from patent US11878975B2, “Substituted indole compounds useful as TLR inhibitors” (BRISTOL-MYERS SQUIBB COMPANY, priority 2017, dated 2024).

What was measured:
Assay type in all cases: cell-based
human TLR7 = molecular target: T1, human TLR7 (Homo sapiens, UniProt Q9NYK1); experiment: TLR7 inhibition reporter assay (HEK-Blue cells, SEAP reporter, gardiquimod stimulation); conditions: HEK-Blue cells overexpressing human TLR7, SEAP reporter, gardiquimod 7.5 μM
T1 construct: host or cells: HEK-Blue cells
T1 sequence (Q9NYK1 27-1049): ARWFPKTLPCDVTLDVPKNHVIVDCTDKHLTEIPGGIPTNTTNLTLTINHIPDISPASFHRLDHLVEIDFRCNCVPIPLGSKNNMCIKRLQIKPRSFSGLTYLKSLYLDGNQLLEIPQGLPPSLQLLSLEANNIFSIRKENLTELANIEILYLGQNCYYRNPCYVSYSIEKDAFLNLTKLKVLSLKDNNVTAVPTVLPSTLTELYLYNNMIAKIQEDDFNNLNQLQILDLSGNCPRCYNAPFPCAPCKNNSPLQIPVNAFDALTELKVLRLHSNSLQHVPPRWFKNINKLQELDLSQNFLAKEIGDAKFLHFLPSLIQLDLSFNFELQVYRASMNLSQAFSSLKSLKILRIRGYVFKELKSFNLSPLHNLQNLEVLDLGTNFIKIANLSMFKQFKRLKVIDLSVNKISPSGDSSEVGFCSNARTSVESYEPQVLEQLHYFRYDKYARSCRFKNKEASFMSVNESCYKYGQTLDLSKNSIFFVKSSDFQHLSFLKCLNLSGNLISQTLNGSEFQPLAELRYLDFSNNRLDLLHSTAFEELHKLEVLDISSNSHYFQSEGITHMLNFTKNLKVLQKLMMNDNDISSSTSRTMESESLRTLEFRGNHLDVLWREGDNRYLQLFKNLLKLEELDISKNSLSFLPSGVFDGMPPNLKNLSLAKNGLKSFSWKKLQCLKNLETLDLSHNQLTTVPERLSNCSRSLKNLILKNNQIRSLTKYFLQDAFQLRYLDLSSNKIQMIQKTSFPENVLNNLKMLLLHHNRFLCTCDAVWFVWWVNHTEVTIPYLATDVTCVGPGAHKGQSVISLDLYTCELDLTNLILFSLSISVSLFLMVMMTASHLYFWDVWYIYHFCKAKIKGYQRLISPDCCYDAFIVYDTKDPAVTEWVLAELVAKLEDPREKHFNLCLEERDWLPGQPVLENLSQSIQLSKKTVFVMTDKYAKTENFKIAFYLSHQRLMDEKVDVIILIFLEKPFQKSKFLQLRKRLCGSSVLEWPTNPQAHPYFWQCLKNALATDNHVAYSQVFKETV
Experimental: (§1) TLR7/8/9 Inhibition Reporter Assays
(§2) HEK-Blue™-cells (Invivogen) overexpressing human TLR7, TLR8 or TLR9 receptors were used for screening inhibitors of these receptors using an inducible SEAP (secreted embryonic alkaline phosphatase) reporter gene under the control of the IFN-β minimal promoter fused to five NF-κB and AP-1-binding sites. Briefly, cells are seeded into Greiner 384 well plates (15000 cells per well for TLR7, 20,000 for TLR8 and 25,000 for TLR9) and then treated with test compounds in DMSO to yield a final dose response concentration range of 0.05 nM-50 μM. After a 30 minute compound pre-treatment al room temperature, the cells are then stimulated with a TLR7 ligand (gardiquimod at a final concentration of 7.5 μM), TLR8 ligand (R848 at a final concentration of 15.9 μM) or TLR9 ligand (ODN2006 at a final concentration of 5 nM) to activate NF-κB and AP-1 which induce the production of SEAP. After a 22 hour incubation at 37° C., 5% CO2, SEAP levels are determined with the addition of HEK-Blue™ Detection reagent (Invivogen), a cell culture medium that allows for detection of SEAP, according to manufacturer's specifications. The percent inhibition is determined as the % reduction in the HEK-Blue signal present in wells treated with agonist plus DMSO alone compared to wells treated with a known inhibitor.

human TLR9 = molecular target: T2, human TLR9 (Homo sapiens, UniProt Q9NR96); experiment: TLR9 inhibition reporter assay (HEK-Blue cells, SEAP reporter, ODN2006 stimulation); conditions: HEK-Blue cells overexpressing human TLR9, SEAP reporter, ODN2006 5 nM
T2 construct: host or cells: HEK-Blue cells
T2 sequence (Q9NR96 26-1032): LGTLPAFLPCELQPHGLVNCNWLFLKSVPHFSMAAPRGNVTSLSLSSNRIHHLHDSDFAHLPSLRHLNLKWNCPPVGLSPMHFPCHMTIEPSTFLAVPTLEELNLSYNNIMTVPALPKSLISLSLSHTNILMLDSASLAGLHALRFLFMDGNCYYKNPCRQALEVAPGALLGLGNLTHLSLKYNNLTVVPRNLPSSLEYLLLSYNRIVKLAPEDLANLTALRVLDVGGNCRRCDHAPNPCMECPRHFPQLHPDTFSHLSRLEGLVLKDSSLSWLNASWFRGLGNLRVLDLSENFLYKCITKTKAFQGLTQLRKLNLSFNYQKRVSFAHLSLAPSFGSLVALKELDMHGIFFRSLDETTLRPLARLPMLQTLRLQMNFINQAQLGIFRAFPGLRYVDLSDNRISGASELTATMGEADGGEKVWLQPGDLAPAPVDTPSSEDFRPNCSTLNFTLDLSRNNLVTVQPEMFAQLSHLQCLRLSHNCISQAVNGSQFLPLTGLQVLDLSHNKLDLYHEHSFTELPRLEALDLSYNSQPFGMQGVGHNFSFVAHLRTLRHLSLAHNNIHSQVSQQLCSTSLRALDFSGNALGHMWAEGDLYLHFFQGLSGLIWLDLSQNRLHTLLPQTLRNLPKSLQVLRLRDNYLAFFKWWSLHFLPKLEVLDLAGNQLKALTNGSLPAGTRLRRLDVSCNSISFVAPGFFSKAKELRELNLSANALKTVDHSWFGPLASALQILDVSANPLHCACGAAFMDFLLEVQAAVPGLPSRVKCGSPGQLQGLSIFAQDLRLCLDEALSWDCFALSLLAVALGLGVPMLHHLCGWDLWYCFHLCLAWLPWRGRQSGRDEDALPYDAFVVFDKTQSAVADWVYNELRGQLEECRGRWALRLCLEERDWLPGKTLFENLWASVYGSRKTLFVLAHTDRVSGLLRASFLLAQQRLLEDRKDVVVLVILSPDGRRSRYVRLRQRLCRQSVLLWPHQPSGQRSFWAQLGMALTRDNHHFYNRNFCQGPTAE
Experimental: as §1, §2

human TLR8 = molecular target: T3, human TLR8 (Homo sapiens, UniProt Q9NR97); experiment: TLR8 inhibition reporter assay (HEK-Blue cells, SEAP reporter, R848 stimulation); conditions: HEK-Blue cells overexpressing human TLR8, SEAP reporter, R848 15.9 μM
T3 construct: host or cells: HEK-Blue cells
T3 sequence (Q9NR97 27-1041): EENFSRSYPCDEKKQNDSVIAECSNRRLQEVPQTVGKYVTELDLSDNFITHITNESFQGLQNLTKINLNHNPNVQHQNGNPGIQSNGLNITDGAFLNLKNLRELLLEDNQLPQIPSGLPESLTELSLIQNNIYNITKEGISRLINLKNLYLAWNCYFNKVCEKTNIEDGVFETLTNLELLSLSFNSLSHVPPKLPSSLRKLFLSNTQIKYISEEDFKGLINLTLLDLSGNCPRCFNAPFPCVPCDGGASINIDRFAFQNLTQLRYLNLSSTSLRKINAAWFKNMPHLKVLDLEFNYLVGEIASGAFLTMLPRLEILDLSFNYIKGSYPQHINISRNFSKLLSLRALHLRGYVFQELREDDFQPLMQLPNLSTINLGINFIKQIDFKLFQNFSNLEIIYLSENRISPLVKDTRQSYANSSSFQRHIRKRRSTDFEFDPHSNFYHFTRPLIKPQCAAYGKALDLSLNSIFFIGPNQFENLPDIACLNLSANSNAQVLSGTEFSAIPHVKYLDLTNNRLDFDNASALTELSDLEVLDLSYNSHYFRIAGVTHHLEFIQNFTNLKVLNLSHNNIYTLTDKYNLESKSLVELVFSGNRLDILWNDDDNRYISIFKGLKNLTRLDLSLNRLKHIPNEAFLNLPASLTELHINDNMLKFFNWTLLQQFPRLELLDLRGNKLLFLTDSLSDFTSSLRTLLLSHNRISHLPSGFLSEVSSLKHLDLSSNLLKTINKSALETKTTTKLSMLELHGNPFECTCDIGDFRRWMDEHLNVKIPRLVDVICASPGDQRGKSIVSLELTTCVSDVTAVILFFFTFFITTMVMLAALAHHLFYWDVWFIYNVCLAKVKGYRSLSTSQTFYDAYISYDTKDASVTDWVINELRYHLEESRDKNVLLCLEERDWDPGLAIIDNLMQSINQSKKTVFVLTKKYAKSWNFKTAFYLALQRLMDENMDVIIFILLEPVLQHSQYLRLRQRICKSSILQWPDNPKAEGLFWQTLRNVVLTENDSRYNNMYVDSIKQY
Experimental: as §1, §2

Row | Structure (SMILES) | IC50 (human TLR7) | IC50 (human TLR9) | IC50 (human TLR8)
1 | Cc1cc(-c2[nH]c3ccc(C4CCC(N)CC4)cc3c2C(C)C)cn2ncnc12 (single isomer, unassigned) [Example 4] | 6 nM | 3170 nM | 45 nM
2 | Cc1cc(-c2[nH]c3ccc(C4CCC(N(C)C5CC5)CC4)cc3c2C(C)C)cn2ncnc12 (single isomer, unassigned) [Example 8] | 6 nM | 3690 nM | 16 nM
3 | Cc1cc(-c2[nH]c3ccc(C4CCC(NC5CC5)CC4)cc3c2C(C)C)cn2ncnc12 (single isomer, unassigned) [Example 15] | 4 nM | 3590 nM | 8.9 nM
4 | Cc1cc(-c2[nH]c3ccc(C4CCC(C)(O)CC4)cc3c2C(C)C)cc(C)n1 (single isomer, unassigned) [Example 170] | 13 nM |  | 590 nM
5 | COc1cc(-c2[nH]c3ccc(C4CCC(NC(=O)CNCC5COC(C)(C)O5)CC4)cc3c2C(C)C)cn2ncnc12 (stereo not shown) [Example 136] |  | 19200 nM | 7.2 nM
6 | CN[C@H](C)C(=O)N1CCCC(c2ccc3[nH]c(-c4cc(C)nc(C)c4)c(C(C)C)c3c2)C1 (stereo partly shown) [Example 221] |  | 357 nM | 4.4 nM
7 | CCN(CC)CC(=O)N1CCOC(c2ccc3[nH]c(-c4cc(OC)c5ncnn5c4)c(C(C)C)c3c2)C1 (stereo not shown) [Example 333] | 0.71 nM |  | 4.7 nM
8 | Cc1c(-c2[nH]c3ccc(C4CNC4)cc3c2C(C)C)cn(C)c(=O)c1C [Example 486] | 19 nM |  | 13 nM
9 | Cc1c(-c2[nH]c3ccc(C4CC(NC5COC5)C4)cc3c2C(C)C)cn2ncnc2c1C (stereo not shown) [Example 576] | 23 nM |  | 7.4 nM
10 | Cc1c(-c2[nH]c3ccc(C4CC(NCC#N)C4)cc3c2C(C)C)cn2ncnc2c1C (stereo not shown) [Example 577] | 4 nM |  | 4.5 nM

The remaining molecules from weak to strong by IC50 (human TLR8), led by results:

Row | IC50 (human TLR7) | IC50 (human TLR9) | IC50 (human TLR8) | Structure (SMILES)
11 | 1 nM | 2000 nM | 4.4 nM | COc1cc(-c2[nH]c3ccc(C4CCC(N(C)C(C)C)CC4)cc3c2C(C)C)cn2ncnc12 (single isomer, unassigned) [Example 7, N-isopropyl-4-(3-isopropyl-2-(8-methoxy-[1,2,4]triazolo[1,5-a]pyridin-6-yl)-1H-indol-5-yl)-N-methylcyclohexanamine]
12 | 1 nM |  | 2.5 nM | COc1cc(-c2[nH]c3ccc(C4CCC(NC(=O)CN5CC(CO)(CO)C5)CC4)cc3c2C(C)C)cn2ncnc12 (stereo not shown) [Example 134]
13 | 0.36 nM | 1880 nM | 1.8 nM | Cc1cc(-c2[nH]c3ccc(C4CCC(N(C)C5CC5)CC4)cc3c2C(C)C)cn2ncnc12 (single isomer, unassigned) [Example 9]
14 | 0.49 nM | 793 nM | 1.3 nM | COc1cc(-c2[nH]c3ccc(C4CCC(N)CC4)cc3c2C(C)C)cn2ncnc12 (single isomer, unassigned) [Example 1, 4-(3-isopropyl-2-(8-methoxy-[1,2,4]triazolo[1,5-a]pyridin-6-yl)-1H-indol-5-yl) cyclohexanamine]
15 | 0.37 nM | 3420 nM | 1.1 nM | COc1cc(-c2[nH]c3ccc(C4CCC(N)CC4)cc3c2C(C)C)cn2ncnc12 (single isomer, unassigned) [Example 2, 4-(3-isopropyl-2-(8-methoxy-[1,2,4]triazolo[1,5-a]pyridin-6-yl)-1H-indol-5-yl) cyclohexanamine]
16 | 0.15 nM | 1290 nM | 1 nM | Cc1cc(-c2[nH]c3ccc(C4CCC(N)CC4)cc3c2C(C)C)cn2ncnc12 (single isomer, unassigned) [Example 3]
17 | 0.33 nM | 1210 nM | 1 nM | COc1cc(-c2[nH]c3ccc(C4CCC(N(C)C(C)C)CC4)cc3c2C(C)C)cn2ncnc12 (single isomer, unassigned) [Example 6, N-isopropyl-4-(3-isopropyl-2-(8-methoxy-[1,2,4]triazolo[1,5-a]pyridin-6-yl)-1H-indol-5-yl)-N-methylcyclohexanamine]
18 | 0.3 nM | 346 nM | 0.81 nM | COc1cc(-c2[nH]c3ccc(C4CCC(N5CC(O)C5)CC4)cc3c2C(C)C)cn2ncnc12 (single isomer, unassigned) [Example 20]
19 | 0.15 nM | 661 nM | 0.47 nM | Cc1cc(-c2[nH]c3ccc(C4CCC(NC5CC5)CC4)cc3c2C(C)C)cn2ncnc12 (single isomer, unassigned) [Example 16]
